# Measurements published in ChEMBL document CHEMBL1153906 (Bioorg Med Chem, 2009).
# Experiments:
# [1] = Inhibition of Caenorhabditis elegans carbonic anhydrase 4b by CO2 hydration assay
# [2] = Selectivity ratio of Ki for human carbonic anhydrase 2 to Ki for Caenorhabditis elegans carbonic anhydrase 4b
Structure (SMILES),Ki [1] [nM],Ratio Ki [2]
NNC(=O)c1[nH]c2ccc(S(N)(=O)=O)cc2c1-c1cccc(Br)c1,13.4,4.03
NNC(=O)c1[nH]c2ccc(S(N)(=O)=O)cc2c1-c1ccc(Br)cc1,11.5,3.54
NNC(=O)c1[nH]c2ccc(S(N)(=O)=O)cc2c1-c1ccccc1Cl,372,0.1
Cc1ccc(-c2c(C(=O)NN)[nH]c3ccc(S(N)(=O)=O)cc23)cc1,12.2,4.95
NNC(=O)c1[nH]c2ccc(S(N)(=O)=O)cc2c1-c1cccc(F)c1,9.9,0.86
Cc1ccccc1-c1c(C(=O)NN)[nH]c2ccc(S(N)(=O)=O)cc12,326,0.03
NNC(=O)c1[nH]c2ccc(S(N)(=O)=O)cc2c1-c1cccc(Cl)c1,10.1,0.91

# Other lines, results leading:
Ki [1] [nM],Ratio Ki [2],Structure (SMILES)
12.5,2.88,NNC(=O)c1[nH]c2ccc(S(N)(=O)=O)cc2c1-c1ccccc1F
260,0.02,NNC(=O)c1[nH]c2ccc(S(N)(=O)=O)cc2c1-c1c(F)c(F)c(F)c(F)c1F
6,2.58,NNC(=O)c1[nH]c2ccc(S(N)(=O)=O)cc2c1-c1ccc(F)cc1
6.5,1.78,NNC(=O)c1[nH]c2ccc(S(N)(=O)=O)cc2c1-c1ccc(Cl)cc1
13.3,3.63,Cc1cccc(-c2c(C(=O)NN)[nH]c3ccc(S(N)(=O)=O)cc23)c1
260,0.18,NNC(=O)c1[nH]c2ccc(S(N)(=O)=O)cc2c1-c1ccccc1Br
330,0.02,COc1cccc(-c2c(C(=O)NN)[nH]c3ccc(S(N)(=O)=O)cc23)c1
